This is an account of results in patent US20030073236A1, “p193 proteins and nucleic acids, and uses thereof” (priority 1999, published 2003).

Assay [1] relates to ES-derived cardiomyocytes. Put plainly: Isoproterenol effect on growth of ES-derived cardiomyocytes co-expressing p193dn and p53dn. In kind it is cell-based. As to conditions: cells with MHC-p193dn and MHC-p53dn, isoproterenol 1 μM mg/ml for 58 days, vs. absence. The text has this: It follows then that if the p193 and p53 pathways are blocked, hypertrophic stimuli might result in direct cell cycle activity. To test this, undifferentiated ES cells were transfected with the MHC-neor/pGK-hygror transgene in combination with both the MHC-p193dn and MHC-p53dn transgenes. Transfected cells were enriched by virtue of their resistance to hygromycin, and then induced to differentiate. The ES-derived cardiomyocytes were then enriched by virtue of their resistance to G418. Cardiomyocyte growth was then compared in these cultures in the presence vs. absence of exogenous isoproterenol (1 μM mg/ml) for 58 days.

In assay [2] the target is T1, SV40 T-Ag (Simian virus 40, UniProt P03070).
T1 construct: construct designated CMV-T-Ag; expressed in transfected cells; host or cells: NIH-3T3
T1 sequence (Q8VE73 whole entry): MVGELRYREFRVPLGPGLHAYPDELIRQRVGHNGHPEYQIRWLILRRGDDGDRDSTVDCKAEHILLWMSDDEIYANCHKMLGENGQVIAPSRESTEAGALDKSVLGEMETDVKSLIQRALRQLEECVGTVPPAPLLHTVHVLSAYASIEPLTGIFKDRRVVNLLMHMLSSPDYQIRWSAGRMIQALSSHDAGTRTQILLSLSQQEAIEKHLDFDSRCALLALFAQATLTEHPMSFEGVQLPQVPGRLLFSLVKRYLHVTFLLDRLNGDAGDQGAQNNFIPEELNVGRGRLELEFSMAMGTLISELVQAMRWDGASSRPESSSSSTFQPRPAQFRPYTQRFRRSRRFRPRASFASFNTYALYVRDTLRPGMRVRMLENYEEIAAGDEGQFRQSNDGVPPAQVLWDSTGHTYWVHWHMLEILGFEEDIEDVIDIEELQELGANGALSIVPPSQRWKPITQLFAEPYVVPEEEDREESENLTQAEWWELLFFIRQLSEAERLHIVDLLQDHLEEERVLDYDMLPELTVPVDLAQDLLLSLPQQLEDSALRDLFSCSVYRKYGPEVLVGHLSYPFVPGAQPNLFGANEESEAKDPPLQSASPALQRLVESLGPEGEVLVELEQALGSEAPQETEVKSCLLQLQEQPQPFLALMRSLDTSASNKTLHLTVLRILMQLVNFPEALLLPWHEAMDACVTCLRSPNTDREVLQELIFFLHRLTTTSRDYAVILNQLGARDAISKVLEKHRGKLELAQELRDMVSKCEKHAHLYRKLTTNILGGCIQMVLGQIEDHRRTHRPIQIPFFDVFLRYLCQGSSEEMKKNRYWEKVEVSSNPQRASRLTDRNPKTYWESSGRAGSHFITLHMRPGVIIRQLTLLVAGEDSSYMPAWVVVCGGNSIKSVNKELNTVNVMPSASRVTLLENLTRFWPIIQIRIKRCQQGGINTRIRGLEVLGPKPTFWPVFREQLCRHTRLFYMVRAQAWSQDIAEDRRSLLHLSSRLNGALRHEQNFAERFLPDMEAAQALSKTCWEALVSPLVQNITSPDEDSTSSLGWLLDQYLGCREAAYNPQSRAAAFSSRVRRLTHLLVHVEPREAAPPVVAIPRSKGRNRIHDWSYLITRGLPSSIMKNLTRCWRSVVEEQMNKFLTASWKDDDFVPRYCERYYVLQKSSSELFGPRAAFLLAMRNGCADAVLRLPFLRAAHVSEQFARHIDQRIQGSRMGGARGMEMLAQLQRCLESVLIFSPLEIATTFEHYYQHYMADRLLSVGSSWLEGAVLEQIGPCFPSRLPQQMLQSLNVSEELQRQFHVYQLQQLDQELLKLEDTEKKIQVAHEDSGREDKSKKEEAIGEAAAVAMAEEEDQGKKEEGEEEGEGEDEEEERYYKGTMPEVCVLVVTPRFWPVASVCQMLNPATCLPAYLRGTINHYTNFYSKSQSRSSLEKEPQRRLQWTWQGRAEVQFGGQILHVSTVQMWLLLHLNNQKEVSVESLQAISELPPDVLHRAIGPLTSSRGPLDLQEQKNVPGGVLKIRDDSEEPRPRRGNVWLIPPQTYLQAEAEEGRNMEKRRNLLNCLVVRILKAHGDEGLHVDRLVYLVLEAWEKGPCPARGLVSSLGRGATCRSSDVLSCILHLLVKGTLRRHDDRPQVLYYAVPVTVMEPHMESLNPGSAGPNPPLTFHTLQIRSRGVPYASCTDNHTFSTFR
T1 sequence (P03070 whole entry): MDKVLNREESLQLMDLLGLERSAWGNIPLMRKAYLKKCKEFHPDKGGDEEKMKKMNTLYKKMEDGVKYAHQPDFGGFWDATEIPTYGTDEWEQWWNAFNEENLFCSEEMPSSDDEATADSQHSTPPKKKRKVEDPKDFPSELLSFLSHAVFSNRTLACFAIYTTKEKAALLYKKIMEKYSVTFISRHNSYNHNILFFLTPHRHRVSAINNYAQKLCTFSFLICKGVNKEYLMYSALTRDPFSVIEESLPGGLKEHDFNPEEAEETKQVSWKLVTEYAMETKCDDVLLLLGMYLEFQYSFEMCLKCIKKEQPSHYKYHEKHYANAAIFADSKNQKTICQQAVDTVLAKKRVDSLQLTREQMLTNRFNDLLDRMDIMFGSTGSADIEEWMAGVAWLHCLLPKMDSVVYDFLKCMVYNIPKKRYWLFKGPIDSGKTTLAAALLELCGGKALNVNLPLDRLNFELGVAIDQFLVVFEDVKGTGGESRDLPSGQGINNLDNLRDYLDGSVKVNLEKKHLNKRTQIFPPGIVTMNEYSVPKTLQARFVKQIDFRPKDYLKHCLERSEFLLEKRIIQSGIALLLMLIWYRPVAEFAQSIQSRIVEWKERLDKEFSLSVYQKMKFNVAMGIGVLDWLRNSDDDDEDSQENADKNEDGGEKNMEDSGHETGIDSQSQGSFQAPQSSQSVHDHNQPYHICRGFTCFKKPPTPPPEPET
Put plainly: p193/T-Ag binding by immune precipitation. The note with it: radiolabeled in vitro translated p193 mixed with recombinant T-Ag. On the procedure:
A T-Ag cDNA was subcloned into pcDNA3.1 expression vector (which lacks the epitope tag; construct designated CMV-T-Ag). For IP/Western analyses, NIH-3T3 cells (ATCC, Rockville Md.) were co-transfected with […] and CMV-p193myc using the calcium phosphate approach (Sambrook, J., Fritsch, E. F., and Maniatis, T. (1989) Molecular cloning, Cold Spring Harbor Laboratory Press, Cold Spring Harbor, N.Y.). Protein (1 mg) prepared from the transfected cells was reacted with an anti-T-Ag (PAb419), an anti-myc (9E10, Santa Cruz Biotech.), or an IgG subtype-matched non-specific antibody (anti-GST, Pharmacia), and the resulting immune complexes were subjected to Western blot analysis. 100 μg of total protein from non-transfected and transfected cells were included as controls. The blots were probed with an anti-myc (9E10) or anti-T-Ag (PAb416) antibody, and signal was developed using the ECL method. […] Immune complex was then visualized via autoradiography (p193) or Western blotting (T-Ag) as described above.

For `CC(C)NCC(O)c1ccc(O)c(O)c1` (centres unmarked) [isoproterenol], the cardiomyocyte colony size result in assay [1] is “Markedly enhanced cardiomyocyte colony size”. Regarding “p193: apoptosis associated, T-Ag binding protein of 1689 amino acid residues (mouse, SEQ. I.D. NO. 2); here in vitro translated”, in assay [2], the “binding of in vitro translated protein to recombinant T-Ag (IP)” value is given as “present in immune complex generated with anti-T-Ag antibody”.
